The test addresses T1, human neutrophil elastase (Homo sapiens, UniProt P08246).
T1 construct: purchased Elastin Products Company
T1 sequence (P08246 30-267): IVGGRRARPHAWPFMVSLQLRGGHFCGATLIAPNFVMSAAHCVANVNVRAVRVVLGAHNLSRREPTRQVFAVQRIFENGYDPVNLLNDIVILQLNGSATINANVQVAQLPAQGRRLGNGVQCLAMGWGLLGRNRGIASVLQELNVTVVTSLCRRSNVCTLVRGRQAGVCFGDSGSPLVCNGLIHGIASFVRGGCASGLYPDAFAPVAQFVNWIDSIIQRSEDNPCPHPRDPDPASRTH
Description: Inhibitory action 2 against human neutrophil elastase (Test Example 2; fluorogenic substrate MeOSuc-AAPV-AMC, buffer with 400 mM NaCl, 0.2 mg/ml BSA). Type of test: biochemical. As to conditions: 37° C., read-out: IC50 value (compound concentration required for 50% inhibition of human neutrophil elastase). The procedure:
Assay buffer (0.4 unit/ml HNE (human neutrophil elastase, available from Elastin Products Company), 200 mM HEPES [N-(2-hydroxyethyl)piperazine-N′-(2-ethanesulfonic acid)], pH 7.5, 400 mM NaCl, 0.2 mg/ml BSA (bovine serum albumin)) 100 μl, water for injection 20 μl and 1% DMSO (dimethyl sulfoxide) solution of the present compound 20 μl were mixed in a 96 well plate and the mixed solutions were pre-incubated at 37° C. for five minutes. After pre-incubation, MeOSuc-AAPV-AMC (methoxysuccinyl-alanyl-alanyl-prolyl-valyl-aminomethyl cumaride (available from Sigma Aldrich Corp.) solution as fluorogenic substrate (which was dissolved in 10% DMSO solution so as to adjust to 0.5 mM) 40 μl was added to the above-prepared mixed solution so as to initiate the reaction, and the mixture was incubated at 37° C. for five minutes. The fluorescence intensity of AMC was measured at an excitation wavelength of 380 nm and a fluorescence wavelength of 460 nm and the inhibition ratio was determined.

pIC50: −log10 of the molar value.

On to `Cc1c(-c2c(S(C)(=O)=O)cnn2-c2ccc(C#N)cc2)c(=O)n(C(C)C)c(=O)n1-c1cccc(C(F)(F)F)c1` (racemic) [Example 276, (±)-4-(5-(3-Isopropyl-6-methyl-2,4-dioxo-1-(3-trifluoromethylphenyl)-1,2,3,4-tetrahydropyrimidin-5-yl-4-(methylsulfonyl)-1H-pyrazol-1-yl)benzonitrile], for which the pIC50 was 7.92.

For `Cc1c(-c2c(S(N)(=O)=O)cnn2-c2ccc(C#N)cc2)c(=O)n(C)c(=O)n1-c1cccc(C(F)(F)F)c1` (single isomer, unassigned) [Example 209, (+)-1-(4-cyanophenyl)-5-(3,6-dimethyl-2,4-dioxo-1-(3-trifluoromethylphenyl)-1,2,3,4-tetrahydropyrimidin-5-yl)-1H-pyrazole-4-sulfonamide], the pIC50 was 8.03.

For `Cc1c(-c2c(S(C)(=O)=O)cnn2-c2ccc(C#N)cc2)c(=O)n(C)c(=O)n1-c1cccc(C(F)(F)F)c1` (single isomer, unassigned) [Example 267], the pIC50 is 7.94.

In the case of `CCn1c(=O)c(-c2ccnn2-c2ccc(C#N)cc2)c(C)n(-c2cccc(C(F)(F)F)c2)c1=O` [Example 41, 4-(5-(3-ethyl-6-methyl-2,4-dioxo-1-(3-(trifluoromethyl)phenyl)-1,2,3,4-tetrahydropyrimidin-5-yl)-1H-pyrazol-1-yl)benzonitrile], the pIC50 is 7.90.

With `Cc1c(-c2ccnn2-c2ccc(C#N)cc2)c(=O)n(C(C)C)c(=O)n1-c1cccc(C(F)(F)F)c1` [Example 42, 4-(5-(3-isopropyl-6-methyl-2,4-dioxo-1-(3-(trifluoromethyl)phenyl)-1,2,3,4-tetrahydropyrimidin-5-yl)-1H-pyrazol-1-yl)benzonitrile], the pIC50 is 8.46.

Regarding `CCc1c(-c2ccnn2-c2ccc(C#N)cc2)c(=O)n(C)c(=O)n1-c1cccc(C(F)(F)F)c1` [Example 50, 4-(5-(6-ethyl-3-methyl-2,4-dioxo-1-(3-(trifluoromethyl)phenyl)-1,2,3,4-tetrahydropyrimidin-5-yl)-1H-pyrazol-1-yl)benzonitrile], the pIC50 was 7.86.

As to `Cc1c(-c2ccnn2-c2ccc(C#N)cc2)c(=O)n([C@H](C)CO)c(=O)n1-c1cccc(C(F)(F)F)c1` [Example 55, (R)-4-(5-(3-(1-hydroxypropan-2-yl)-6-methyl-2,4-dioxo-1-(3-(trifluoromethyl)phenyl)-1,2,3,4-tetrahydropyrimidin-5-yl)-1H-pyrazol-1-yl)benzonitrile], the pIC50 was 8.31.

For the compound `Cc1c(-n2cnnc2-c2ccc(C#N)cc2)c(=O)n(C(C)C)c(=O)n1-c1cccc(C(F)(F)F)c1` [Example 65, 4-(4-(3-Isopropyl-6-methyl-2,4-dioxo-1-(3-(trifluoromethyl)phenyl)-1,2,3,4-tetrahydropyrimidin-5-yl)-4H-1,2,4-triazol-3-yl)benzonitrile], the pIC50 was 8.26.

For `N#Cc1ccc(-n2nccc2-c2cn(-c3cccc(C(F)(F)F)c3)c(=O)n([C@@H]3CNC(=O)C3)c2=O)cc1` [Example 90], the pIC50 was 6.45.

Turning to `Cc1c(-c2c(C(=O)N(C)C)cnn2-c2ccc(C#N)cc2)c(=O)n(C(C)C)c(=O)n1-c1cccc(C(F)(F)F)c1` [Example 153], the pIC50 was 8.27.

On to `CCn1c(=O)c(-c2c(C(=O)N3CC(O)C3)cnn2-c2ccc(C#N)cc2)c(C)n(-c2cccc(C(F)(F)F)c2)c1=O` [Example 156], for which the pIC50 is 8.00.

`CCn1c(=O)c(-c2c(C(=O)N(C)CCO)cnn2-c2ccc(C#N)cc2)c(C)n(-c2cccc(C(F)(F)F)c2)c1=O` [Example 176]: the pIC50 is 7.94.

For the compound `COCCNC(=O)c1cnn(-c2ccc(C#N)cc2)c1-c1c(C)n(-c2cccc(C(F)(F)F)c2)c(=O)n(C)c1=O` [Example 178], the pIC50 is 7.87.

On to `Cc1c(-c2c(C(=O)NC3CC3)cnn2-c2ccc(C#N)cc2)c(=O)n(C)c(=O)n1-c1cccc(C(F)(F)F)c1` [Example 179], for which the pIC50 is 8.06.

On to `Cc1c(-c2c(C(=O)OCCCCN(C)C)cnn2-c2ccc(C#N)cc2)c(=O)n(C)c(=O)n1-c1cccc(C(F)(F)F)c1` [Example 187, 4-(dimethylamino)butyl 1-(4-cyanophenyl)-5-(3,6-dimethyl-2,4-dioxo-1-(3-trifluoromethylphenyl)-1,2,3,4-tetrahydropyrimidin-5-yl)-1H-pyrazole-4-carboxylate], for which the pIC50 is 7.71.

`COC(=O)c1cnn(-c2ccc(C#N)cc2)c1-c1c(C)n(-c2cccc(C(F)(F)F)c2)c(=O)n(C)c1=O` [Example 188]: the pIC50 was 7.73.

On to `Cc1c(-c2c(S(=O)(=O)O)cnn2-c2ccc(C#N)cc2)c(=O)n(C)c(=O)n1-c1cccc(C(F)(F)F)c1` [Example 191, 1-(4-cyanophenyl)-5-(3,6-dimethyl-2,4-dioxo-1-(3-trifluoromethylphenyl)-1,2,3,4-tetrahydropyrimidin-5-yl)-1H-pyrazole-4-sulfonic acid], for which the pIC50 was 7.64.

For `Cc1c(-c2c(S(=O)(=O)O)cnn2-c2ccc(C#N)cc2)c(=O)n(C)c(=O)n1-c1cccc(C(F)(F)F)c1` [Example 196], the pIC50 was 8.08.

Regarding `Cc1c(-c2c(S(N)(=O)=O)cnn2-c2ccc(C#N)cc2)c(=O)n(C)c(=O)n1-c1cccc(C(F)(F)F)c1` [Example 205, 1-(4-cyanophenyl)-5-(3,6-dimethyl-2,4-dioxo-1-(3-trifluoromethylphenyl)-1,2,3,4-tetrahydropyrimidin-5-yl)-1H-pyrazole-4-sulfonamide], the pIC50 was 7.82.

On to `Cc1c(-c2c(S(N)(=O)=O)cnn2-c2ccc(C#N)cc2)c(=O)n(C(C)C)c(=O)n1-c1cccc(C(F)(F)F)c1` [Example 206], for which the pIC50 was 8.03.

In the case of `Cc1c(-c2c(S(N)(=O)=O)cnn2-c2ccc(C#N)cc2)c(=O)n(C)c(=O)n1-c1cccc(C(F)(F)F)c1` [Example 211, (+)-1-(4-cyanophenyl)-5-(3,6-dimethyl-2,4-dioxo-1-(3-trifluoromethylphenyl)-1,2,3,4-tetrahydropyrimidin-5-yl)-1H-pyrazole-4-sulfonamide 0.5 IPA solvates], the pIC50 was 8.06.

In the case of `CNS(=O)(=O)c1cnn(-c2ccc(C#N)cc2)c1-c1c(C)n(-c2cccc(C(F)(F)F)c2)c(=O)n(C)c1=O` [Example 218], the pIC50 is 7.83.

Regarding `Cc1c(-c2c(S(=O)(=O)N3CCOCC3)cnn2-c2ccc(C#N)cc2)c(=O)n(C)c(=O)n1-c1cccc(C(F)(F)F)c1` [Example 221], the pIC50 is 7.70.

On to `Cc1c(-c2c(S(=O)(=O)NCCO)cnn2-c2ccc(C#N)cc2)c(=O)n(C)c(=O)n1-c1cccc(C(F)(F)F)c1` [Example 227], for which the pIC50 was 8.11.

For `Cc1c(-c2c(S(=O)(=O)N3CCOC3=O)cnn2-c2ccc(C#N)cc2)c(=O)n(C)c(=O)n1-c1cccc(C(F)(F)F)c1` [Example 239], the pIC50 was 8.11.

As to `CCCCC(=O)NS(=O)(=O)c1cnn(-c2ccc(C#N)cc2)c1-c1c(C)n(-c2cccc(C(F)(F)F)c2)c(=O)n(C)c1=O` [Example 243], the pIC50 is 8.27.

With `Cc1c(-c2c(S(=O)(=O)NC(=O)c3ccccc3)cnn2-c2ccc(C#N)cc2)c(=O)n(C)c(=O)n1-c1cccc(C(F)(F)F)c1` [Example 249], the pIC50 was 7.92.

For the compound `COC(=O)NS(=O)(=O)c1cnn(-c2ccc(C#N)cc2)c1-c1c(C)n(-c2cccc(C(F)(F)F)c2)c(=O)n(C)c1=O` [Example 252], the pIC50 was 7.69.

With `CCNC(=O)NS(=O)(=O)c1cnn(-c2ccc(C#N)cc2)c1-c1c(C)n(-c2cccc(C(F)(F)F)c2)c(=O)n(C)c1=O` [Example 257], the pIC50 is 8.11.

For the compound `Cc1c(-c2c(S(=O)(=O)NC(=O)C3CCCCC3)cnn2-c2ccc(C#N)cc2)c(=O)n(C)c(=O)n1-c1cccc(C(F)(F)F)c1` [Example 261], the pIC50 is 8.14.

For `Cc1c(-c2c(S(C)(=O)=O)cnn2-c2ccc(C#N)cc2)c(=O)n(C)c(=O)n1-c1cccc(C(F)(F)F)c1` [Example 265], the pIC50 was 7.63.

Regarding `CCn1c(=O)c(-c2c(C(C)(C)O)cnn2-c2ccc(C#N)cc2)c(C)n(-c2cccc(C(F)(F)F)c2)c1=O` [Example 288, 4-(5-(3-ethyl-6-methyl-2,4-dioxo-1-(3-trifluoromethylphenyl)-1,2,3,4-tetrahydropyrimidin-5-yl)-4-(2-hydroxypropan-2-yl)-1H-pyrazol-1-yl)benzonitrile], the pIC50 is 7.58.

As to `Cc1c(-c2c(C3(O)CCS(=O)(=O)CC3)cnn2-c2ccc(C#N)cc2)c(=O)n(C)c(=O)n1-c1cccc(C(F)(F)F)c1` [Example 293], the pIC50 is 7.60.

On to `CCn1c(=O)c(-c2c(C(C)(C)N)cnn2-c2ccc(C#N)cc2)c(C)n(-c2cccc(C(F)(F)F)c2)c1=O` [Example 297, 4-(4-(2-aminopropane-2-yl)-5-(3-ethyl-6-methyl-2,4-dioxo-1-(3-trifluoromethylphenyl)-1,2,3,4-tetrahydropyrimidin-5-yl)-1H-pyrazol-1-yl)benzonitrile], for which the pIC50 is 7.53.

For `CCn1c(=O)c(-c2c(C3(N)CCC3)cnn2-c2ccc(C#N)cc2)c(C)n(-c2cccc(C(F)(F)F)c2)c1=O` [Example 298], the pIC50 was 7.37.

`Cc1c(-c2c(CN3CC(F)(F)C3)cnn2-c2ccc(C#N)cc2)c(=O)n(C)c(=O)n1-c1cccc(C(F)(F)F)c1` [Example 305]: the pIC50 is 7.66.

The values are drawn from patent US9040516B2, “Uracil derivative and use thereof for medical purposes” (SUMITOMO DAINIPPON PHARMA CO., LTD., priority 2011, dated 2015).
